Experimental data reported in PubChem BioAssay (NCI).
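Values below derive from 48-hour exposures of cells grown in 96-well plates, with endpoints linearly interpolated between the two concentrations bracketing the appropriate inhibition level. TGI: total growth inhibition.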

Columns and labels:
Assay in all cases: NCI anticancer screen, dose series, 48 h
[1] = tested on: HCC-2998 colon
[2] = tested on: OVCAR-5 ovarian
[3] = tested on: RXF 393 renal
[4] = tested on: CAKI-1 renal
[5] = tested on: HL-60(TB) leukemia
[6] = tested on: K-562 leukemia
[7] = tested on: OVCAR-8 ovarian
[8] = tested on: EKVX NSCLC
[9] = tested on: M14 melanoma
[10] = tested on: OVCAR-4 ovarian
[11] = tested on: SR leukemia
[12] = tested on: HCT-116 colon
[13] = tested on: A549 NSCLC
[14] = tested on: M19-MEL melanoma
[15] = tested on: IGROV1 ovarian
[16] = tested on: SNB-75 CNS
[17] = tested on: SW-620 colon
[18] = tested on: ACHN renal
[19] = tested on: XF 498 CNS
[20] = tested on: NCI-H226 lung
[21] = tested on: HOP-92 NSCLC
[22] = tested on: TK-10 renal
[23] = tested on: 786-0 renal
[24] = tested on: U251 CNS
[25] = tested on: UO-31 renal
[26] = tested on: DMS 273 small cell lung
[27] = tested on: SN12C renal
[28] = tested on: RPMI-8226 leukemia
[29] = tested on: SK-MEL-28 melanoma
[30] = tested on: DLD-1 colon
[31] = tested on: SK-MEL-2 melanoma
[32] = tested on: HT29 colon
[33] = tested on: HOP-18 NSCLC
[34] = tested on: A498 renal
[35] = tested on: NCI-H460 lung
[36] = tested on: NCI-H23 lung
[37] = tested on: SF-539 CNS
[38] = tested on: COLO 205 colon
[39] = tested on: RXF-631 renal
[40] = tested on: SF-295 CNS
[41] = tested on: SK-OV-3 ovarian
[42] = tested on: UACC-62 melanoma
[43] = tested on: SNB-78 CNS
[44] = tested on: CCRF-CEM leukemia
[45] = tested on: NCI-H522 lung
[46] = tested on: UACC-257 melanoma
[47] = tested on: KM12 colon
[48] = tested on: HCT-15 colon
[49] = tested on: KM20L2 colon
[50] = tested on: MALME-3M melanoma
[51] = tested on: SF-268 CNS
[52] = tested on: LXFL 529 NSCLC
[53] = tested on: OVCAR-3 ovarian
[54] = tested on: MOLT-4 leukemia
[55] = tested on: LOX IMVI melanoma
[56] = tested on: HOP-62 NSCLC
[57] = tested on: SNB-19 CNS
[58] = tested on: SK-MEL-5 melanoma
[59] = tested on: DMS 114 small cell lung

In the case of `COC(=O)/C=C\C1C(C(=O)OC)C2(C(=O)OC)CCC1(C(=O)OC)N2` (stereo not drawn), the TGI [1] is reported as 31.2 µM, the TGI [2] is reported as 34.5 µM and the TGI [3] is reported as 19.7 µM. The TGI [4] was 6.82 µM, the TGI [5] was 6.47 µM and the TGI [6] was 53.2 µM. For the same molecule, the TGI [7] was 19 µM, the TGI [8] was over 60.2 µM and the TGI [9] was 28.8 µM. The TGI [10] was 34.5 µM, the TGI [11] was 16.7 µM and the TGI [12] was 27.6 µM. The TGI [13] was 39.9 µM, the TGI [14] was 27.9 µM and the TGI [15] was over 58.1 µM. For the same molecule, the TGI [16] was 32.9 µM, the TGI [17] was 9.38 µM and the TGI [18] was 22.7 µM. It also gave a TGI [19] of 34.3 µM, a TGI [20] of 36.6 µM and a TGI [21] of 19.6 µM. It also gave a TGI [22] of 15 µM, a TGI [23] of 28.6 µM and a TGI [24] of 32.7 µM. For the same molecule, the TGI [25] was 30.8 µM, the TGI [26] was 33.9 µM and the TGI [27] was 29.9 µM. The TGI [28] was 26.4 µM, the TGI [29] was 26.4 µM and the TGI [30] was 12.4 µM. For the same molecule, the TGI [31] was 30 µM, the TGI [32] was 45.7 µM and the TGI [33] was 28.9 µM. It also gave a TGI [34] of 32.9 µM, a TGI [35] of 42.5 µM and a TGI [36] of 36.4 µM. It also gave a TGI [37] of 32 µM, a TGI [38] of 13.5 µM and a TGI [39] of 48.7 µM. It also gave a TGI [40] of 44.8 µM, a TGI [41] of 31.9 µM and a TGI [42] of 29.8 µM. For the same molecule, the TGI [43] was 35.9 µM, the TGI [44] was 21.8 µM and the TGI [45] was 1.76 µM. The TGI [46] was 19.2 µM, the TGI [47] was 36.7 µM and the TGI [48] was 11.2 µM. It also gave a TGI [49] of over 61.8 µM, a TGI [50] of 15.8 µM and a TGI [51] of 44.5 µM. It also gave a TGI [52] of 19.3 µM, a TGI [53] of 28.7 µM and a TGI [54] of 14.7 µM. The TGI [55] was 29 µM, the TGI [56] was 34.1 µM and the TGI [57] was 23.8 µM. It also gave a TGI [58] of 34.1 µM.

`CCOC(=O)NC(=O)c1cn(-c2ccc(CCOC(=O)CCCCCCCCC(=O)OCCc3ccc(-n4cc(C(=O)NC(=O)OCC)c(=O)[nH]c4=O)cc3)cc2)c(=O)[nH]c1=O` was tested, and the TGI [1] was over 100 µM, the TGI [2] was over 100 µM and the TGI [3] was over 100 µM. It also gave a TGI [5] of over 100 µM, a TGI [6] of over 100 µM and a TGI [7] of over 100 µM. It also gave a TGI [8] of over 100 µM, a TGI [9] of over 100 µM and a TGI [10] of over 100 µM. The TGI [59] was over 100 µM, the TGI [11] was over 100 µM and the TGI [12] was over 100 µM. For the same molecule, the TGI [13] was over 100 µM, the TGI [14] was over 100 µM and the TGI [15] was over 100 µM. For the same molecule, the TGI [17] was over 100 µM, the TGI [18] was over 100 µM and the TGI [19] was over 100 µM. The TGI [20] was over 100 µM, the TGI [21] was 88.7 µM and the TGI [22] was over 100 µM. For the same molecule, the TGI [23] was over 100 µM, the TGI [24] was over 100 µM and the TGI [25] was over 100 µM. It also gave a TGI [27] of over 100 µM, a TGI [28] of over 100 µM and a TGI [29] of over 100 µM. The TGI [30] was over 100 µM, the TGI [31] was over 100 µM and the TGI [32] was over 100 µM. The TGI [33] was over 100 µM, the TGI [35] was over 100 µM and the TGI [36] was over 100 µM. For the same molecule, the TGI [37] was over 100 µM, the TGI [38] was over 100 µM and the TGI [39] was over 100 µM. For the same molecule, the TGI [40] was over 100 µM, the TGI [41] was over 100 µM and the TGI [42] was over 100 µM. It also gave a TGI [43] of over 100 µM, a TGI [44] of over 100 µM and a TGI [46] of over 100 µM. The TGI [47] was over 100 µM, the TGI [48] was over 100 µM and the TGI [49] was over 100 µM. For the same molecule, the TGI [50] was over 100 µM, the TGI [51] was over 100 µM and the TGI [52] was over 100 µM. The TGI [53] was over 100 µM, the TGI [54] was over 100 µM and the TGI [55] was over 100 µM. It also gave a TGI [56] of over 100 µM, a TGI [57] of over 100 µM and a TGI [58] of over 100 µM.

`CCOP(=O)(C/C(=N/NC(C)(C)C)C(=O)Nc1nc2ccc(C)cc2s1)OCC` gave a TGI [1] of over 100 µM, a TGI [2] of over 100 µM and a TGI [3] of over 100 µM. The TGI [4] was over 100 µM, the TGI [5] was over 100 µM and the TGI [6] was over 100 µM. The TGI [7] was over 100 µM, the TGI [8] was over 100 µM and the TGI [9] was over 100 µM. The TGI [10] was over 100 µM, the TGI [59] was over 100 µM and the TGI [11] was over 100 µM. The TGI [12] was over 100 µM, the TGI [13] was over 100 µM and the TGI [14] was over 100 µM. For the same molecule, the TGI [15] was over 100 µM, the TGI [16] was over 100 µM and the TGI [17] was over 100 µM. For the same molecule, the TGI [18] was over 100 µM, the TGI [19] was over 100 µM and the TGI [20] was over 100 µM. The TGI [22] was over 100 µM, the TGI [23] was over 100 µM and the TGI [24] was over 100 µM. For the same molecule, the TGI [25] was over 100 µM, the TGI [26] was over 100 µM and the TGI [27] was over 100 µM. It also gave a TGI [29] of over 100 µM, a TGI [31] of over 100 µM and a TGI [32] of over 100 µM. The TGI [33] was over 100 µM, the TGI [34] was over 100 µM and the TGI [35] was over 100 µM. For the same molecule, the TGI [36] was over 100 µM, the TGI [37] was over 100 µM and the TGI [38] was over 100 µM. The TGI [39] was over 100 µM, the TGI [40] was over 100 µM and the TGI [41] was over 100 µM. For the same molecule, the TGI [42] was over 100 µM, the TGI [43] was over 100 µM and the TGI [44] was over 100 µM. For the same molecule, the TGI [45] was over 100 µM, the TGI [46] was over 100 µM and the TGI [47] was over 100 µM. For the same molecule, the TGI [48] was over 100 µM, the TGI [49] was over 100 µM and the TGI [50] was over 100 µM. The TGI [51] was over 100 µM, the TGI [52] was over 100 µM and the TGI [53] was over 100 µM. The TGI [54] was over 100 µM, the TGI [55] was over 100 µM and the TGI [56] was over 100 µM. The TGI [57] was over 100 µM and the TGI [58] was over 100 µM.
